By inhibition is commonly meant the drop in the measured response relative to a control, in per cent. For orientation: IC50 means the concentration that gives 50% inhibition.

In data set [1] the test system is LAT1. Put plainly: LAT1 function: competitive uptake of L-dopa in Vero cells. It counts as cell-based, African green monkey. As to conditions: L-dopa 0.1 mM, 10 min; for Percent Inhibition of L-Dopa Distribution Volume: competitor (BCH, L-tyrosine, sesamol 1 mM; L-leucine, L-alanine 2 mM; melphalan 0.05 mM); for L-Dopa Distribution Volume in presence of the compound: competitor at the concentration printed in the row. The method, then: (§1) SK-MEL-2 and Vero cells were seeded separately into 24-well plates at 2 × 10^5 cells/well for 24 h. The media was removed, and the cells pre-incubated with HBSS pH 7.4 for 10 min. The cells were used for the following experiments.
(§2) Sesamol was also investigated for its affinity to LAT1. […] Competitive uptake was performed for 10 min then the cells were washed twice with ice-cold PBS. The L-dopa was solubilized by 0.1 M HCl and the cell lysate (25 µL) was pipetted for protein determination. […] Intracellular and extracellular L-dopa was quantified by the HPLC assay. The L-dopa uptake was represented as the distribution volume of L-dopa in a cell to media ratio (C/M ratio) as calculated in Section 4.3.1.
(§3) Quantitative analysis of sesamol and L-dopa were performed using a Shimadzu HPLC (LC-2030C-3D) with a UV photodiode array detector (DAD) (Kyoto, Japan). The analysis was based on a BDS Hypersil C-18 column, (4.6 × 250 mm, 5 µm packing, Thermo Fisher Scientific, Waltham, MA, USA). The column temperature was set at 30 °C with a flow rate of 0.8 mL/min. The mobile phase for sesamol quantification was 70% methanol in water, vs. 20% methanol in water for L-dopa. The respective detection wavelength and elution time for sesamol and L-dopa was 297 nm and 280 nm and 4.2 and 4.5 min. The validated sesamol quantification conducted using sesamol spiked cell lysate with high selectivity and clear separation from the endogenous cell lysate as previously reported. The % bias and % precision was determined within and between days, each was maintained below 6%.

The target in data set [2] is T1, LAT1 (Homo sapiens, UniProt Q01650). Put plainly: LAT1 function: competitive uptake of L-dopa in SK-MEL-2 cells. It counts as cell-based. The settings on record: for Percent Inhibition of L-Dopa Distribution Volume: competitor (BCH, L-tyrosine, sesamol 1 mM; L-leucine, L-alanine 2 mM; melphalan 0.05 mM); for L-Dopa Distribution Volume in presence of the compound: competitor at the concentration printed in the row. As to the method: as §1, §2
T1 sequence (Q01650 whole entry): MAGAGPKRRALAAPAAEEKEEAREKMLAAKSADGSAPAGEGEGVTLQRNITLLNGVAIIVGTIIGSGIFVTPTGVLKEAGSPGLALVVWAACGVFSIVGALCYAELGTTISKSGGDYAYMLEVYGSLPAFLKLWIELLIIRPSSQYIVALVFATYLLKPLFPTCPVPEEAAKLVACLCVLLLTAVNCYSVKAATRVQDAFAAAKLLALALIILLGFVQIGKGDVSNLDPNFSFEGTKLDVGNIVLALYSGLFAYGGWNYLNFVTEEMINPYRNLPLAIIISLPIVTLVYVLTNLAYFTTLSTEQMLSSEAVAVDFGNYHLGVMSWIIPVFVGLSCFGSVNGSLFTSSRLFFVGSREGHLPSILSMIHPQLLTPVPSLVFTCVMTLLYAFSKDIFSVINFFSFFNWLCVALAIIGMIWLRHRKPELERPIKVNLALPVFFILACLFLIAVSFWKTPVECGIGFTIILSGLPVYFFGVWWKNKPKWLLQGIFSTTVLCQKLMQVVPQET
T1 sequence (P08195 102-630 partner): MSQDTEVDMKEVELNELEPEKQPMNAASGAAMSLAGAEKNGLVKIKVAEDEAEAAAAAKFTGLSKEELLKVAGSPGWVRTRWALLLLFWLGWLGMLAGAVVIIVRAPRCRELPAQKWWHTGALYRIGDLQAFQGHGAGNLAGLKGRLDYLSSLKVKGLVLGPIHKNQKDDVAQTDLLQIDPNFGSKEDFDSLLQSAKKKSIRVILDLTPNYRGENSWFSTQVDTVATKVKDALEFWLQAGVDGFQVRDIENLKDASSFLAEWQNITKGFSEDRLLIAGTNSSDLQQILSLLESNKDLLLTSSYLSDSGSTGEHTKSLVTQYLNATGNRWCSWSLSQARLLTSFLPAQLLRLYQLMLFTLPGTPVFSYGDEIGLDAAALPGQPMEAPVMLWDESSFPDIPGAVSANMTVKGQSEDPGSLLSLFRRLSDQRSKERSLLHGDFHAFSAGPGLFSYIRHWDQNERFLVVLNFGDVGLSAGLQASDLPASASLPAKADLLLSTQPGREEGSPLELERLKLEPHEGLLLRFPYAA
The analysis was based on a BDS Hypersil C-18 column, (4.6 × 250 mm, 5 µm packing, Thermo Fisher Scientific, Waltham, MA, USA). The column temperature was set at 30 °C with a flow rate of 0.8 mL/min. The mobile phase for sesamol quantification was 70% methanol in water, vs. 20% methanol in water for L-dopa. […] The validated sesamol quantification conducted using sesamol spiked cell lysate with high selectivity and clear separation from the endogenous cell lysate as previously reported. The % bias and % precision was determined within and between days, each was maintained below 6%.

The test system of data set [3] is LAT1. As to conditions: Vero cells, sesamol 0.1 mM, 10 min; for Percent Inhibition of Sesamol Distribution Volume: competitor at the concentration (BCH, L-tyrosine, L-dopa 1 mM; L-leucine, L-alanine 2 mM; melphalan 0.05 mM); for Sesamol Distribution Volume in presence of the compound: competitor at the concentration printed in the row. The method, then: as §1
(§4) Competitive inhibition of uptake of sesamol was done in both SK-MEL-2 and the Vero cells. […] The cells were washed twice with ice-cold PBS, solubilized in methanol, and centrifuged at 2400× g, at 4 °C for 20 min. The precipitated protein was re-solubilized by 0.1 M NaOH prior to protein determination. The sesamol content was quantified using HPLC assay. The cellular uptake of sesamol was calculated as per the C/M ratio.
as §3

The target in data set [4] is T1, LAT1. Kind of data set: cell-based. The settings on record: for Percent Inhibition of Sesamol Distribution Volume / Sesamol Distribution Volume in presence of the compound: SK-MEL-2, sesamol 0.1 mM, 10 min; for Percent Inhibition of Sesamol Distribution Volume: competitor at the concentration (BCH, L-tyrosine, L-dopa 1 mM; L-leucine, L-alanine 2 mM; melphalan 0.05 mM); for Sesamol Distribution Volume in presence of the compound: competitor at the concentration printed in the row. The method, then: as §1, §4, §3

A further data set concerns Vero cells. Kind of data set: Antiproliferative effect, neutral red uptake assay, Vero cells. The class given is cell-based, African green monkey. The method, then:
(§5) The SK-MEL-2 and Vero cells (at 5 × 10^4 cells/well) were seeded separately into 96-well plates. After the cells were exposed to the tested compounds (200 µL) for 24 h, neutral red (50 µg/mL) (Sigma-Aldrich, St. Louis, MO, USA) was incorporated into the cells for 2 h. The cells were then washed with ice-cold PBS and lysed using 0.33% HCl in isopropanol. The absorbances of neutral red were measured at 540 nm with a reference wavelength of 660 nm using a UV-microplate reader (Perkin Elmer, Waltham, MA, USA). […] The selective index was calculated from the ratio of the IC50 of Vero and SK-MEL-2 cells.

The next data set has as its system SK-MEL-2 cells. Kind of data set: Antiproliferative effect, neutral red uptake assay, SK-MEL-2 cells. The class given is cell-based, human. The method, then: as §5
Where [5] appears, read: SK-MEL-2, L-dopa 0.1 mM, 10 min.
[6] abbreviates: SK-MEL-2, read-out: Percent Inhibition of Sesamol Distribution Volume.
Setting [7] is: SK-MEL-2, read-out: Percent Inhibition of L-Dopa Distribution Volume.

Marks after values point to notes of the source that are not given here.

As to `CC(C)C[C@H](N)C(=O)O` [L-leucine, L-Leucine], the “Percent Inhibition of L-Dopa Distribution Volume” value in the data set with LAT1 [1] and at LAT1 [2] (setting [5]) was 75% throughout. Also, the “L-Dopa Distribution Volume in presence of the compound” value with LAT1 [1] came out at 39.1 ± 2.3 µL/mg Protein; on LAT1 [2] (setting [5]), 94.1 ± 13.5 µL/mg Protein. Also, the results for the “Percent Inhibition of Sesamol Distribution Volume” value in the data set with LAT1 [3] and on LAT1 [4] were 23% and 50%, respectively. The “Sesamol Distribution Volume in presence of the compound” value was 13.8 ± 1.4 µL/mg Protein in the data set with LAT1 [3] and 11.7 ± 0.7 µL/mg Protein on LAT1 [4].
In the case of `N[C@@H](Cc1ccc(O)c(O)c1)C(=O)O` [L-Dopa, L-dopa], the “L-Dopa Distribution Volume, control (no competitor)” value is reported as 0% (155.6 ± 17.8)^a µL/mg Protein with LAT1 [1] (37 °C) and 0% (370.6 ± 13.0)^a µL/mg Protein on LAT1 [2] (SK-MEL-2, L-dopa 0.1 mM, 10 min, 37 °C). Besides, in the data set with LAT1 [3], the “Percent Inhibition of Sesamol Distribution Volume” value is on record as 40% (10.8 ± 2.0)^b,c. In addition, the inhibition at 1000 µM on LAT1 [4] (setting [6]) stood at 68%. In addition, the “Sesamol Distribution Volume in presence of the compound” value on LAT1 [4] is reported as 7.4 ± 0.8 µL/mg Protein.
As to `C[C@H](N)C(=O)O` [L-Alanine, L-alanine], in the data set on LAT1 [1], the “Percent Inhibition of L-Dopa Distribution Volume” value stood at 35%. Also, the “L-Dopa Distribution Volume in presence of the compound” value stood at 101.3 ± 4.0 µL/mg Protein in the data set with LAT1 [1] and 121.2 ± 3.6 µL/mg Protein on LAT1 [2] (setting [5]). In addition, the values for the inhibition at 2000 µM on LAT1 [2] (setting [7]) and on LAT1 [4] (setting [6]) were 67% and 44%, respectively. The “Percent Inhibition of Sesamol Distribution Volume” value in the data set with LAT1 [3] was 25%. In addition, the “Sesamol Distribution Volume in presence of the compound” value with LAT1 [3] came out at 13.3 ± 2.0 µL/mg Protein; on LAT1 [4], 13.1 ± 0.3 µL/mg Protein.
As to `NC1(C(=O)O)CC2CCC1C2` (stereo not drawn) [BCH, 2-Amino-2-norbornanecarboxylic acid], the “cytotoxicity compared to untreated cells” value in the data set with Vero cells (Vero cells, BCH 1 mM) is recorded as “no cytotoxicity”; with SK-MEL-2 cells (SK-MEL-2 cells, BCH 1 mM), “no cytotoxicity”. Besides, the “Percent Inhibition of L-Dopa Distribution Volume” value with LAT1 [1] stood at 69%; on LAT1 [2] (setting [5]) it was 82%. Besides, the results for the “L-Dopa Distribution Volume in presence of the compound” value with LAT1 [1] and at LAT1 [2] (setting [5]) were 47.9 ± 3.7 µL/mg Protein and 67.3 ± 14.0 µL/mg Protein, respectively. Also, the results for the “Percent Inhibition of Sesamol Distribution Volume” value with LAT1 [3] and at LAT1 [4] were 42% and 55%, respectively. Further, the “Sesamol Distribution Volume in presence of the compound” value was 10.4 ± 1.9 µL/mg Protein in the data set with LAT1 [3] and 10.3 ± 0.9 µL/mg Protein on LAT1 [4].
In the case of `N[C@@H](Cc1ccc(O)cc1)C(=O)O` [L-tyrosine], in the data set with LAT1 [1], the “Percent Inhibition of L-Dopa Distribution Volume” value was determined as 69% and the “L-Dopa Distribution Volume in presence of the compound” value is 48.7 ± 11.0 µL/mg Protein. Moreover, the “Percent Inhibition of L-Dopa Distribution Volume” value on LAT1 [2] (setting [5]) is reported as 72%. The “Percent Inhibition of Sesamol Distribution Volume” value with LAT1 [3] is reported as 41%. For the same compound, at LAT1 [4], the “Percent Inhibition of Sesamol Distribution Volume” value came out at 75% and the “Sesamol Distribution Volume in presence of the compound” value was found to be 5.8 ± 0.2 µL/mg Protein.
`N[C@@H](Cc1ccc(N(CCCl)CCCl)cc1)C(=O)O` [Melphalan, melphalan]: the IC50 in the data set with Vero cells (Chlorocebus sabaeus, Vero, 24 h, read-out: IC50 (cell viability)) came to 600 ± 300 µM; in the data set on SK-MEL-2 cells (Homo sapiens, SK-MEL-2, 24 h, read-out: IC50 (cell viability)) it was 100 µM. Further, the “Percent Inhibition of L-Dopa Distribution Volume” value with LAT1 [1] was determined as 39%. Also, the results for the “L-Dopa Distribution Volume in presence of the compound” value in the data set on LAT1 [1] and at LAT1 [2] (setting [5]) were 95.5 ± 11.2 µL/mg Protein and 196.6 ± 20.3 µL/mg Protein, respectively. Moreover, the “Selective Index” value in the data set on SK-MEL-2 cells (ratio of the IC50 of Vero and SK-MEL-2 cells) is 6.0. Moreover, the results for the inhibition at 50 µM on LAT1 [2] (setting [7]) and at LAT1 [4] (setting [6]) were 47% and 60%, respectively. For the same compound, the “Percent Inhibition of Sesamol Distribution Volume” value in the data set with LAT1 [3] is 35%. The “Sesamol Distribution Volume in presence of the compound” value in the data set on LAT1 [3] is 11.7 ± 0.7 µL/mg Protein; on LAT1 [4], 9.4 ± 0.7 µL/mg Protein.

These data come from paper PMC6865181, “Role of L-Type Amino Acid Transporter 1 (LAT1) for the Selective Cytotoxicity of Sesamol in Human Melanoma Cells” (Molecules, 2019).
